Laboratory results reported in US9522192B2 (EPITECH GROUP S.r.l., priority 2012, dated 2016).
Read-outs that look alike come from different tables or passages of the source.

Columns and labels:
[1] = test system: carrageenan-induced hyperalgesia; test: Mechanical hyperalgesia after λ-carrageenan injection into the paw, topical application; type: in vivo, mice; settings: for anti-hyperalgesic effect at earlier times: 2 and 4 h after application; for anti-hyperalgesic activity (paw withdrawal latency): topical on paw, dose equimolar to 1 mg PEA/paw, evaluated 2-96 h after carrageenan
Description: Male Swiss mice weighing 25 to 30 g were purchased from Harlan (Udine, Italy). They were housed in stainless steel cages in a room kept at 22±1° C. on a 12/12-h light/dark cycle. […] Each group of mice (n=6) was applied with 0.05 ml of ethanol solutions on dorsal surface of the left paw. After 5 minutes the animal received 50 μl of 1% λ-carrageenan in sterile saline injected into the treated paw. Absolute ethanol was used as vehicle in control animals. […] Mechanical hyperalgesia was assessed by measuring of latency (s) to withdraw the paw from a constant mechanical pressure exerted onto its dorsal surface. A 15-g calibrated glass cylindrical rod (diameter=10 mm) […] to a conical point (diameter=3 mm) was used to exert the mechanical force. The weight was suspended vertically between two rings attached to a stand and was free to move vertically. A cut off time of 90 sec. was used. Results are expressed as mean±S.E.M. of n experiments. All analyses were conducted using Graph-Pad Prism (GraphPad Software Inc., San Diego, Calif.). The significance of differences between groups was determined by Student t-test (for ex vivo experiments) and two-way analysis of variance (ANOVA) followed by Bonferroni post hoc tests for multiple comparisons (for in vivo experiments). Difference with P<0.05 (*) was considered statistically significant.

[2] = test system: carrageenan-induced paw oedema; test: Carrageenan-induced paw oedema, topical application; type: in vivo, mice; settings: for anti-inflammatory effect at earlier times: 2 and 4 h after application; for anti-inflammatory activity (paw volume / paw oedema): topical on paw, dose equimolar to 1 mg PEA/paw, evaluated 2-96 h after carrageenan
Description: Male Swiss mice weighing 25 to 30 g were purchased from Harlan (Udine, Italy). They were housed in stainless steel cages in a room kept at 22±1° C. on a 12/12-h light/dark cycle. […] Each group of mice (n=6) was applied with 0.05 ml of ethanol solutions on dorsal surface of the left paw. After 5 minutes the animal received 50 μl of 1% λ-carrageenan in sterile saline injected into the treated paw. Absolute ethanol was used as vehicle in control animals. […] Paw oedema development was measured by a plethysmometer (Ugo Basile, Milan, Italy). The increase in paw volume was evaluated as the difference between the paw volume measured at each time point and the basal paw volume measured at time 0 (before drug application and carrageenan injection). Results are expressed as mean±S.E.M. of n experiments. All analyses were conducted using Graph-Pad Prism (GraphPad Software Inc., San Diego, Calif.). The significance of differences between groups was determined by Student t-test (for ex vivo experiments) and two-way analysis of variance (ANOVA) followed by Bonferroni post hoc tests for multiple comparisons (for in vivo experiments). Difference with P<0.05 (*) was considered statistically significant.

[3] = Skin accumulation and PEA release after topical application on the paw (lipid extraction, HPLC)
Description: (§1) Frozen tissues samples were weighed and homogenized in a solution of methanol and a serine protease inhibitor, phenylmethylsulphonyl fluoride (PMSF, 1 mM). Then, homogenate tissues were subjected to methanol-chloroform-water (1:2:1, v/v/v) extraction. After centrifugation, the organic layer was carefully removed, transferred to another vial and purified by silica gel (60-Å, 230-400 mesh) micro-columns.
(§2) Molecules of interest were isolated by small-scale chromatography. Glass microcolumns (5 cm, ø 50 mm) were used. 1 ml of a mixture (1/1 v/v) of chloroform and silica gel (0.04-0.063 mm, 230-400 mesh, Macherey-Nagel) was used to load the columns. Samples were dissolved in 1 ml of chloroform and then loaded. Columns were washed with 1 ml of chloroform and 2 ml of chloroform/methanol (9/1 v/v), thus obtaining the fractions of interest that were collected and evaporated in vacuum. The extraction method was validated in blank experiments by treating skin with a known amount of each analyzed compound. Recovery percentages were calculated as well and they resulted higher than 85% for all the tested products.
(§3) HPLC analysis was performed on a Jasco apparatus (Jasco inc., Easton, Md., USA) composed by a quaternary gradient pump (PU 2089 Plus), a 25 μl Rheodyne injection valve and a multi-wave length UV detector (MD 2010 Plus). […] The specificity (absence of interfering peak from skin samples) was assessed as well.

[4] = mouse, in vivo
Description: as §1, §2, §3

[5] = Water solubility; type: physicochemical
[6] = after local application, 1.6 mg/paw
[7] = after local application, 1.72 mg/paw
[8] = 6-96 h after topical application

CCCCCCCCCCCCCCCC(=O)NCCOC(=O)CCC(=O)OCCOCCO [derivative 8a, N-Palmitoylethanolamine-O-(succinyl(diethylene glycol))]
anti-hyperalgesic effect at earlier times [1]: No effect
anti-hyperalgesic activity lasting up to [1, 6]: up to 72 h
anti-hyperalgesic activity (paw withdrawal latency) [1]: significant
anti-inflammatory effect at earlier times [2]: No effect
anti-inflammatory activity lasting up to [2, 6]: up to 72 h
anti-inflammatory activity (paw volume / paw oedema) [2]: significant
PEA release sustained / maintained up to ([3]; after topical application): up to 72 hours
accumulation in the skin ([3]; after topical application): accumulate in the skin and release PEA
kinetic release of PEA in the skin ([3]; after topical application): faster release
start of PEA release (relevant amount of PEA detectable) ([3]; after topical application): 2 h
total amount accumulated in the skin (PEA+derivative) relative to PEA alone ([3]; whole period of analysis): ~10 times

CCCCCCCCCCCCCCCC(=O)NCCOC(=O)CCC(=O)OCCOCCOCCO [derivative 8b, N-Palmitoylethanolamine-O-(succinyl(triethylene glycol))]
time from which anti-hyperalgesic activity is significant [1, 7]: ≥ 2 days
anti-hyperalgesic activity (paw withdrawal latency) [1]: significant
time from which anti-inflammatory activity is significant [2, 7]: ≥ 2 days
anti-inflammatory activity (paw volume / paw oedema) [2]: significant
accumulation in the skin [4]: accumulate in the skin and release PEA

N-[2-methoxypolyethylene glycol(5000)-O-carbonyl-oxy-ethyl]-palmitamide [Example 7]
Water solubility [5]: > 10000 µg/mL

CCCCCCCCCCCCCCCC(=O)NCCO [PEA, Palmitoylethanolamide, reference compound]
anti-hyperalgesic effect at earlier times [1]: significant
anti-hyperalgesic effect at later times [1, 8]: no effect
anti-hyperalgesic activity (paw withdrawal latency) [1]: markedly reduced
anti-inflammatory effect at earlier times [2]: significant
anti-inflammatory effect at later times [2, 8]: no effect
anti-inflammatory activity (paw volume / paw oedema) [2]: markedly reduced
PEA levels in the skin ([3]; after 24 h): return to baseline
